The record followed here is ChEMBL document CHEMBL5033997, “Macrolide Inspired Macrocycles as Modulators of the IL-17A/IL-17RA Interaction” (J Med Chem, 2021).

A short description of the test: Inhibition of recombinant human IL-17A/IL-17AR protein-protein interaction using TMB substrate compound added on IL17A precoated plate and followed by IL-17AR addition by ELISA. On the technique in general: An ELISA detects its analyte on a solid surface through an enzyme-linked reagent.
For `COc1ccc(C(=O)N[C@@H](Cc2ccccc2Cl)C(=O)Nc2ccc(C[C@@H]3CC(=O)N(C)C[C@H](C)C[C@@](C)(O)[C@H](O[C@@H]4O[C@H](C)C[C@H](N(C)C)[C@H]4O)[C@@H](C)[C@H](O[C@H]4C[C@@](C)(OC)[C@@H](O)[C@H](C)O4)[C@@H](C)C(=O)N[C@@H](C(C)C)C(=O)N3)cc2)cc1`, the IC50 – broadly, the point on the concentration scale where inhibition reaches its midpoint – was 397 nM.
As for `CO[C@]1(C)C[C@H](O[C@H]2[C@H](C)[C@@H](O[C@@H]3O[C@H](C)C[C@H](N(C)C)[C@H]3O)[C@](C)(O)C[C@@H](C)CN(C)C(=O)C[C@H](Cc3ccc(NC(=O)[C@H](Cc4ccccc4Cl)NC(=O)Cc4ccccc4)cc3)NC(=O)[C@@H](C(C)C)NC(=O)[C@@H]2C)O[C@@H](C)[C@@H]1O`, the figure is above 30000 nM; as for `CO[C@]1(C)C[C@H](O[C@H]2[C@H](C)[C@@H](O[C@@H]3O[C@H](C)C[C@H](N(C)C)[C@H]3O)[C@](C)(O)C[C@@H](C)CN(C)C(=O)C[C@@H](Cc3ccc(NC(=O)[C@H](Cc4ccccc4Cl)NC(=O)Cc4cccc(C)c4)cc3)NC(=O)[C@H](C(C)C)NC(=O)[C@@H]2C)O[C@@H](C)[C@@H]1O`, 77 nM; as for `CO[C@]1(C)C[C@H](O[C@H]2[C@H](C)[C@@H](O[C@@H]3O[C@H](C)C[C@H](N(C)C)[C@H]3O)[C@](C)(O)C[C@@H](C)CN(C)C(=O)C[C@@H](Cc3ccc(NC(=O)[C@H](Cc4ccccc4Cl)NC(=O)Cc4ccc(C#N)cc4)cc3)NC(=O)[C@H](C(C)C)NC(=O)[C@@H]2C)O[C@@H](C)[C@@H]1O`, 303 nM.
Regarding `CO[C@]1(C)C[C@H](O[C@H]2[C@H](C)[C@@H](O[C@@H]3O[C@H](C)C[C@H](N(C)C)[C@H]3O)[C@](C)(O)C[C@@H](C)CN(C)C(=O)C[C@@H](Cc3ccc(NC(=O)[C@H](Cc4ccccc4Cl)NC(=O)Cc4ccccc4C)cc3)NC(=O)[C@H](C(C)C)NC(=O)[C@@H]2C)O[C@@H](C)[C@@H]1O`, the IC50 was 116 nM.
As to `CO[C@]1(C)C[C@H](O[C@H]2[C@H](C)[C@@H](O[C@@H]3O[C@H](C)C[C@H](N(C)C)[C@H]3O)[C@](C)(O)C[C@@H](C)CN(C)C(=O)C[C@@H](Cc3ccc(NC(=O)[C@H](Cc4ccccc4)NC(=O)Cc4ccccc4)cc3)NC(=O)[C@H](C(C)C)NC(=O)[C@@H]2C)O[C@@H](C)[C@@H]1O`, the IC50 amounted to 2560 nM.
In the case of `CO[C@]1(C)C[C@H](O[C@H]2[C@H](C)[C@@H](O[C@@H]3O[C@H](C)C[C@H](N(C)C)[C@H]3O)[C@](C)(O)C[C@@H](C)CN(C)C(=O)C[C@@H](Cc3ccc(NC(=O)[C@H](Cc4ccccc4Cl)NC(=O)Cc4ccccc4)cc3)NC(=O)CCNC(=O)[C@@H]2C)O[C@@H](C)[C@@H]1O`, the IC50 is above 30000 nM.
In the case of `CO[C@]1(C)C[C@H](O[C@H]2[C@H](C)[C@@H](O[C@@H]3O[C@H](C)C[C@H](N(C)C)[C@H]3O)[C@](C)(O)C[C@@H](C)CN(C)C(=O)C[C@@H](Cc3ccc(NC(=O)[C@H](Cc4ccccc4Cl)NC(=O)Cc4ccccc4)cc3)NC(=O)[C@@H](C(C)C)NC(=O)[C@@H]2C)O[C@@H](C)[C@@H]1O`, the IC50 was above 30000 nM.
As for `CO[C@]1(C)C[C@H](O[C@H]2[C@H](C)[C@@H](O[C@@H]3O[C@H](C)C[C@H](N(C)C)[C@H]3O)[C@](C)(O)C[C@@H](C)CN(C)C(=O)C[C@@H](Cc3ccc(NC(=O)[C@H](Cc4ccccc4Cl)NC(=O)Cc4ccc(C(=O)O)cc4)cc3)NC(=O)[C@H](C(C)C)NC(=O)[C@@H]2C)O[C@@H](C)[C@@H]1O`, the figure is above 10000 nM.
Take `CO[C@]1(C)C[C@H](O[C@H]2[C@H](C)[C@@H](O[C@@H]3O[C@H](C)C[C@H](N(C)C)[C@H]3O)[C@](C)(O)C[C@@H](C)CN(C)C(=O)C[C@@H](Cc3ccc(NC(=O)[C@H](Cc4ccccc4Cl)NC(=O)Cc4ccccc4)cc3)NC(=O)[C@H](C(C)C)CNC(=O)[C@@H]2C)O[C@@H](C)[C@@H]1O`: the IC50 worked out at 2900 nM.
